Measurements reported in patent US20210115104A1, “AMYLIN ANALOGUES” (Zealand Pharma A/S, priority 2015, published 2021).
pEC50: −log10 of the molar value. *1 amine or outer side, *2 acyl side, *3 side chain or, on linkers, in order; H or OH if unused. Where a SMILES comes first, the peptide text is derived from it. Bridges are numbered along the chain shown (N, C = ends). [ ]: non-standard residue; d: D form. The star is where a group is joined. C20 diacid = O=C(O)CCCCCCCCCCCCCCCCCCC(=O)*; γGlu = O=C(O)[C@H](CCC(=O)[*:2])N[*:1]; Hyp = O=C(O)[C@@H]1C[C@@H](O)CN1; NMeI = CC[C@H](C)[C@H](NC)C(=O)O; Sar = CNCC(=O)O

Columns and labels:
[1] = biological target: T1, human amylin receptor 3 (hAMYR3), hCTR2 co-expressed with hRAMP3 (Homo sapiens, UniProt O60896+P30988); assay: hAMYR3 cAMP assay (AlphaScreen) in COS7 cells; format: cell-based; details: cAMP induction, COS7 cells expressing hAMYR3; Table 1; read-out: hAMYR3 EC50
T1 construct: expressed in transfected cells
T1 sequence (P30988 25-474): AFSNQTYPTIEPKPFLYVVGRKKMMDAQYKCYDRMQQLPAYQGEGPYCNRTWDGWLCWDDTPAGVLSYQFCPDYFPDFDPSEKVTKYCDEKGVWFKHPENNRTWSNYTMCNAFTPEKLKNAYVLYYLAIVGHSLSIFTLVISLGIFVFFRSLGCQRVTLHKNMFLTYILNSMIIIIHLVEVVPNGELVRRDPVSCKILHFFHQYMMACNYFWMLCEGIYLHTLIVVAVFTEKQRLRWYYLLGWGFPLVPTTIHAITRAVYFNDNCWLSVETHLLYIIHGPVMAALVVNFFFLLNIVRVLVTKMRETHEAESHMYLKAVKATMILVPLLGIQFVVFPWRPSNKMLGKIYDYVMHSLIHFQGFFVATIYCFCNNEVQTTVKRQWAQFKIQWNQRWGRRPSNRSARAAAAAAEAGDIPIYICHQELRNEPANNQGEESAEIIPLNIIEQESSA
T1 sequence (O60896 24-148 partner): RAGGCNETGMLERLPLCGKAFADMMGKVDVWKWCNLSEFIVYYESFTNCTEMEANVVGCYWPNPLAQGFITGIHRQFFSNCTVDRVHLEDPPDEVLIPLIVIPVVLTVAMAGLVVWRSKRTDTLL
How it was run: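 Stable COS7 clone co-expressing hCTR2 and hRAMP3 was exposed to increasing peptide concentrations in Tyrode buffer (pH 7.4) with 100 µM IBMX and 0.1% casein for 15 min at 37 °C. Lysate cAMP was measured by AlphaScreen; EC50 came from 4-parameter logistic fitting.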

[2] = Assessment of physical stability (Thioflavin T fibrillation); format: physicochemical; parameters: key: FND = fibrillation not detected; FD = fibrillation detected; details: 1 mg/ml, 40° C., ThT; for Fibrillation pH 4.0 (Ac): 50 mM acetate buffer pH 4.0, 96 hours; for Fibrillation pH 7.0 (His): 50 mM histidine buffer pH 7.0, 96 hours; for Fibrillation pH 7.0 (Phos.): 50 mM phosphate buffer pH 7.0, 96 hours
How it was run: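 1 mg/ml peptide with 40 μM ThT in 50 mM phosphate pH 7.0, 50 mM histidine pH 7.0 or 50 mM acetate pH 4.0, in triplicate. Fluorescence read every 10 min after 300 s agitation over 96 h at 40 °C. Lag-time (h) is the intersection of linear fits to stable and growth phases.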

[3] = biological target: T2, human calcitonin receptor (hCTR2) (Homo sapiens, UniProt P30988); assay: hCTR2 cAMP assay (AlphaScreen) in COS7 cells; format: cell-based; details: cAMP induction, COS7 cells expressing hCTR2; Table 1; read-out: hCTR2 EC50
T2 construct: expressed in transfected cells
T2 sequence (P30988 25-474): T1 sequence (P30988 25-474)
How it was run: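 Stable hCTR2 clone in RAMP-naïve COS7 cells stimulated 15 min at 37 °C with increasing peptide concentrations in Tyrode buffer pH 7.4 containing IBMX and 0.1% casein. cAMP in lysates measured by AlphaScreen; EC50 from 4-parameter logistic fit.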

[4] = Assessment of chemical stability (RP-HPLC normalized purity); format: physicochemical; details: 7 days, 40° C., Table 1; for Normalized purity after 7 days, 40° C., pH 4: pH 4, 0.2 mg/ml; for Normalized purity after 7 days, 40° C., pH 6: pH 6, 0.2 mg/ml; for Normalized purity after 7 days, 40° C., pH 7.5: pH 7.5, 0.2 mg/ml; for Normalized purity after 7 days, 40° C., pH 9: pH 9, 0.2 mg/ml
How it was run: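 Peptides at 0.2 mg/ml in water adjusted to pH 4, 6, 7.5 or 9, incubated at 40° C for 7 days. Main-peak area-% by RP-HPLC (C8 ammonium formate or C18 TFA gradient, UV 220 nm), normalized to T=0 as 100.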

| pEC50 [1] | Fibrillation pH 4.0 (Ac) [2] | Fibrillation pH 7.0 (His) [2] | Fibrillation pH 7.0 (Phos.) [2] | pEC50 [3] | Normalized purity after 7 days, 40° C., pH 4 [4] | Normalized purity after 7 days, 40° C., pH 6 [4] | Normalized purity after 7 days, 40° C., pH 7.5 [4] | Normalized purity after 7 days, 40° C., pH 9 [4] | SMILES |
| --- | --- | --- | --- | --- | --- | --- | --- | --- | --- |
| 10.10 | FND | FND | FND | 10.22 | A (A = >90%) | A (A = >90%) | A (A = >90%) | B (B = 70-90%) | CC[C@H](C)[C@@H](C(=O)N[C@@H](CC(C)C)C(=O)N[C@@H](CO)C(=O)N[C@@H](CO)C(=O)N[C@H](C(=O)N[C@@H](CCC(=O)O)C(=O)N[C@H](C(=O)NCC(=O)N[C@@H](CO)C(=O)N[C@@H](CC(N)=O)C(=O)N[C@H](C(=O)N1C[C@H](O)C[C@H]1C(N)=O)[C@@H](C)O)C(C)C)[C@@H](C)O)N(C)C(=O)[C@H](C)NC(=O)CN(C)C(=O)[C@H](Cc1ccccc1)NC(=O)[C@H](CO)NC(=O)[C@H](CO)NC(=O)[C@H](CCCNC(=N)N)NC(=O)[C@H](CCC(N)=O)NC(=O)[C@H](CC(C)C)NC(=O)[C@H](Cc1ccccc1)NC(=O)[C@H](Cc1c[nH]cn1)NC(=O)[C@H](C)NC(=O)[C@H](CC(C)C)NC(=O)[C@H](CCCNC(=N)N)NC(=O)[C@H](CCC(=O)O)NC(=O)[C@@H](NC(=O)[C@H](C)NC(=O)[C@@H]1CSSC[C@H](NC(=O)[C@H](CCCNC(=N)N)NC(=O)CC[C@H](NC(=O)CCCCCCCCCCCCCCCCCCC(=O)O)C(=O)O)C(=O)N[C@@H](CC(N)=O)C(=O)N[C@@H]([C@@H](C)O)C(=O)N[C@@H](C)C(=O)N[C@@H]([C@@H](C)O)C(=O)N1)[C@@H](C)O [Compound 56, [19CD]-isoGlu-R-C( )-NTAT-C( )-ATERLAHFLQRSSF-Gly(Me)-A-Ile(Me)-LSSTEVGSNT-Hyp-NH2] ({C20 diacid-γGlu}-RCNTATCATERLAHFLQRSSF[Sar]A[NMeI]LSSTEVGSNT[Hyp]-NH2; disulfide 2-7) |
| 10.05 | FND | FND | FND | 10.10 | A (A = >90%) | A (A = >90%) | A (A = >90%) | B (B = 70-90%) | CC[C@H](C)[C@@H](C(=O)N[C@@H](CC(C)C)C(=O)N[C@@H](CO)C(=O)N[C@@H](CO)C(=O)N[C@H](C(=O)N[C@@H](CCC(=O)O)C(=O)N[C@H](C(=O)NCC(=O)N[C@@H](CO)C(=O)N[C@@H](CC(=O)O)C(=O)N[C@H](C(=O)N1C[C@H](O)C[C@H]1C(N)=O)[C@@H](C)O)C(C)C)[C@@H](C)O)N(C)C(=O)[C@H](C)NC(=O)CN(C)C(=O)[C@H](Cc1ccccc1)NC(=O)[C@H](CO)NC(=O)[C@H](CO)NC(=O)[C@H](CCCNC(=N)N)NC(=O)[C@H](CCC(N)=O)NC(=O)[C@H](CC(C)C)NC(=O)[C@H](Cc1ccccc1)NC(=O)[C@H](Cc1c[nH]cn1)NC(=O)[C@H](C)NC(=O)[C@H](CC(C)C)NC(=O)[C@H](CCCNC(=N)N)NC(=O)[C@H](CCC(=O)O)NC(=O)[C@@H](NC(=O)[C@H](C)NC(=O)[C@@H]1CSSC[C@H](NC(=O)[C@H](CCCNC(=N)N)NC(=O)CC[C@H](NC(=O)CCCCCCCCCCCCCCCCCCC(=O)O)C(=O)O)C(=O)N[C@@H](CC(N)=O)C(=O)N[C@@H]([C@@H](C)O)C(=O)N[C@@H](C)C(=O)N[C@@H]([C@@H](C)O)C(=O)N1)[C@@H](C)O [Compound 60, [19CD]-isoGlu-R-C( )-NTAT-C( )-ATERLAHFLQRSSF-Gly(Me)-A-Ile(Me)-LSSTEVGSDT-Hyp-NH2] ({C20 diacid-γGlu}-RCNTATCATERLAHFLQRSSF[Sar]A[NMeI]LSSTEVGSDT[Hyp]-NH2; disulfide 2-7) |
| 10.05 | FND | FND | FND | 10.15 | A (A = >90%) | B (B = 70-90%) | B (B = 70-90%) | B (B = 70-90%) | CC[C@H](C)[C@@H](C(=O)N[C@@H](CC(C)C)C(=O)N[C@@H](CO)C(=O)N[C@@H](CO)C(=O)N[C@H](C(=O)N[C@@H](CCC(=O)O)C(=O)N[C@H](C(=O)NCC(=O)N[C@@H](CO)C(=O)NCC(=O)N[C@H](C(=O)N1C[C@H](O)C[C@H]1C(N)=O)[C@@H](C)O)C(C)C)[C@@H](C)O)N(C)C(=O)[C@H](C)NC(=O)CN(C)C(=O)[C@H](Cc1ccccc1)NC(=O)[C@H](CO)NC(=O)[C@H](CO)NC(=O)[C@H](CCCNC(=N)N)NC(=O)[C@H](CCC(N)=O)NC(=O)[C@H](CC(C)C)NC(=O)[C@H](Cc1ccccc1)NC(=O)[C@H](Cc1c[nH]cn1)NC(=O)[C@H](C)NC(=O)[C@H](CC(C)C)NC(=O)[C@H](CCCNC(=N)N)NC(=O)[C@H](CCC(=O)O)NC(=O)[C@@H](NC(=O)[C@H](C)NC(=O)[C@@H]1CSSC[C@H](NC(=O)[C@H](CCCNC(=N)N)NC(=O)CC[C@H](NC(=O)CCCCCCCCCCCCCCCCCCC(=O)O)C(=O)O)C(=O)NCC(=O)N[C@@H]([C@@H](C)O)C(=O)N[C@@H](C)C(=O)N[C@@H]([C@@H](C)O)C(=O)N1)[C@@H](C)O [Compound 52, [19CD]-isoGlu-R-C( )-GTAT-C( )-ATERLAHFLQRSSF-Gly(Me)-A-Ile(Me)-LSSTEVGSGT-Hyp-NH2] ({C20 diacid-γGlu}-RCGTATCATERLAHFLQRSSF[Sar]A[NMeI]LSSTEVGSGT[Hyp]-NH2; disulfide 2-7) |
| 9.96 | FND | FND | FND | 10.30 | A (A = >90%) | A (A = >90%) | B (B = 70-90%) | B (B = 70-90%) | CC[C@H](C)[C@@H](C(=O)N[C@@H](CC(C)C)C(=O)N[C@@H](CO)C(=O)N[C@@H](CO)C(=O)N[C@H](C(=O)N[C@@H](CCC(=O)O)C(=O)N[C@H](C(=O)NCC(=O)N[C@@H](CO)C(=O)N[C@@H](CO)C(=O)N[C@H](C(=O)N1CCC[C@H]1C(N)=O)[C@@H](C)O)C(C)C)[C@@H](C)O)N(C)C(=O)[C@H](C)NC(=O)CN(C)C(=O)[C@H](Cc1ccccc1)NC(=O)[C@H](CO)NC(=O)[C@H](CO)NC(=O)[C@H](CCCNC(=N)N)NC(=O)[C@H](CC(N)=O)NC(=O)[C@H](CC(C)C)NC(=O)[C@H](Cc1ccccc1)NC(=O)[C@H](Cc1c[nH]cn1)NC(=O)[C@H](C)NC(=O)[C@H](CC(C)C)NC(=O)[C@H](CCCNC(=N)N)NC(=O)[C@H](CCC(=O)O)NC(=O)[C@@H](NC(=O)[C@H](C)NC(=O)[C@@H]1CSSC[C@H](NC(=O)[C@H](CCCNC(=N)N)NC(=O)CC[C@H](NC(=O)CCCCCCCCCCCCCCCCCCC(=O)O)C(=O)O)C(=O)NCC(=O)N[C@@H]([C@@H](C)O)C(=O)N[C@@H](C)C(=O)N[C@@H]([C@@H](C)O)C(=O)N1)[C@@H](C)O [Compound 35, [19CD]-isoGlu-R-C( )-GTAT-C( )-ATERLAHFLNRSSF-Gly(Me)-A-Ile(Me)-LSSTEVGSSTP-NH2] ({C20 diacid-γGlu}-RCGTATCATERLAHFLNRSSF[Sar]A[NMeI]LSSTEVGSSTP-NH2; disulfide 2-7) |
